# Results: patent US11690915
# Where two headings read alike, the source gives them in different places.
# Key:
# [1] = 18-membered ring
# [2] = from CC(C)(CO)Cc1c(-c2ccnc(N3CCN(C(=O)OCc4ccccc4)CC3)c2)n(C(C)(C)C#N)c2ccc(-c3csc(C[C@H](NC(=O)OC(C)(C)C)C(=O)N4CCC[C@@H](C(=O)O)N4)n3)cc12; ester bond; 18-membered ring; EDC/HOBt/DIEA; DCM; 1.05 mM
smiles,measurement,setting,value
CO[C@@H](C)c1ncccc1-c1c2c3cc(ccc3n1CCOC1CCOCC1)-c1csc(n1)C[C@H](NC(=O)OC(C)(C)C)C(=O)N1CCC[C@H](N1)C(=O)OCC(C)(C)C2,"ring closure, isolated yield","[1]; from CO[C@@H](C)c1ncccc1-c1c(CC(C)(C)CO)c2cc(-c3csc(C[C@H](NC(=O)OC(C)(C)C)C(=O)N4CCC[C@@H](C(=O)O)N4)n3)ccc2n1CCOC1CCOCC1, ester bond, EDC/HOBt/DIEA, DCM, 7.0 mM",68%
CC1(C)COC(=O)[C@@H]2CCCN(N2)C(=O)[C@@H](NC(=O)OC(C)(C)C)Cc2nc(cs2)-c2ccc3[nH]c(I)c(c3c2)C1,"ring closure, isolated yield","[1]; from CC(C)(CO)Cc1c(I)[nH]c2ccc(-c3csc(C[C@H](NC(=O)OC(C)(C)C)C(=O)N4CCC[C@@H](C(=O)O)N4)n3)cc12, ester bond, EDC/HOBt/DIEA, DCM, 17.6 mM",45.9%
CCn1c(-c2cccnc2[C@H](C)OC)c2c3cc(ccc31)-c1csc(n1)[C@@H](OCC(F)F)[C@H](NC(=O)OC(C)(C)C)C(=O)N1CCC[C@H](N1)C(=O)OCC(C)(C)C2,"ring closure, isolated yield","[1]; from CCn1c(-c2cccnc2[C@H](C)OC)c(CC(C)(C)COC(=O)[C@@H]2CCCN(C(=O)[C@@H](NC(=O)OC(C)(C)C)[C@H](OCC(F)F)c3nc(Br)cs3)N2)c2cc(B3OC(C)(C)C(C)(C)O3)ccc21, cc_pd bond, Pd(DtBPF)Cl2/K3PO4, toluene/1,4-dioxane/H2O 3:1:1, 10.0 mM, 60.0 °C, 1.0 h",59%
CCn1c(-c2cc(N3CCN(C(=O)OCc4ccccc4)CC3)cnc2[C@H](C)OC)c2c3cc(ccc31)-c1csc(n1)C[C@H](NC(=O)OC(C)(C)C)C(=O)N1CCC[C@H](N1)C(=O)OCC(C)(C)C2,"ring closure, isolated yield","[1]; from CCn1c(-c2cc(N3CCN(C(=O)OCc4ccccc4)CC3)cnc2[C@H](C)OC)c(CC(C)(C)CO)c2cc(-c3csc(C[C@H](NC(=O)OC(C)(C)C)C(=O)N4CCC[C@@H](C(=O)O)N4)n3)ccc21, ester bond, EDC/HOBt/DIEA, MeCN, 10.3 mM, 25.0 °C",54.8%
CC1(C)COC(=O)[C@@H]2CCCN(N2)C(=O)[C@@H](NC(=O)OC(C)(C)C)Cc2nc(cs2)-c2ccc3c(c2)c(c(-c2ccnc(N4CCN(C(=O)OCc5ccccc5)CC4)c2)n3C(C)(C)C#N)C1,"ring closure, crude yield",[2],52%
